# Measurements: US6534524B1, “Indazole compounds and pharmaceutical compositions for inhibiting protein kinases, and methods for their use” (Agouron Pharmaceuticals, Inc., priority 1999, dated 2003)
# Test system: human umbilical vein endothelial cells (HUVEC)
# Experiment: HUVEC proliferation assay (VEGF-stimulated, MTT);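 also: relative to VEGF-stimulated control minus starvation-medium baseline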
# Type: cell-based
# Conditions: crude reaction mixtures
# Description: HUVEC Proliferation Assay
# This assay determines the ability of a test compound to inhibit the growth factor-stimulated proliferation of human umbilical vein endothelial cells (“HUVEC”). HUVEC cells (passage 3-4, Clonetics, Corp.) were thawed into EGM2 culture medium (Clonetics Corp) in T75 flasks. Fresh EGM2 medium was added to the flasks 24 hours later. Four or five days later, cells were exposed to another culture medium (F12K medium supplemented with 10% fetal bovine serum (FBS), 60 μg/mL endothelial cell growth supplement (ECGS), and 0.1 mg/mL heparin). Exponentially-growing HUVEC cells were used in experiments thereafter. Ten to twelve thousand HUVEC cells were plated in 96-well dishes in 100 μl of rich, culture medium (described above). The cells were allowed to attach for 24 hours in this medium. The medium was then removed by aspiration and 105 μl of starvation media (F12K+1% FBS) was added to each well. After 24 hours, 15 μl of test agent dissolved in 1% DMSO in starvation medium or this vehicle alone was added into each treatment well; the final DMSO concentration was 0.1%. One hour later, 30 μl of VEGF (30 ng/mL) in starvation media was added to all wells except those containing untreated controls; the final VEGF concentration was 6 ng/mL. Cellular proliferation was quantified 72 hours later by MTT dye reduction, at which time cells were exposed for 4 hours MTT (Promega Corp.).
# For screening compound library plates, one or two concentrations (one well per concentration) were employed, and the % inhibition was calculated by the following formula:
# % inhibition=(control−test)÷(control−starvation)
# % inhibition=(control-treated)/(control-starvation)×100
# [1] = Library I, Y = CO, nominal concentration of 10 nM
# [2] = Library I, Y = NH, nominal concentration of 10 nM
# [3] = Library I, Y = O, nominal concentration of 10 nM
# [4] = Library II, Y=S, 0.5 mM (column head; text: nominal 0.5 nM)
# [5] = Library II, Y=S, 2 mM (column head; text: nominal 2 nM)
SMILES,% inhibition of the proliferation of HUVEC [1],% inhibition of the proliferation of HUVEC [2],% inhibition of the proliferation of HUVEC [3],% inhibition of the proliferation of HUVEC [4],% inhibition of the proliferation of HUVEC [5]
O=C(Nc1cccnc1)c1ccc2c(-c3nc4ccccc4[nH]3)n[nH]c2c1,−2%,17%,25%,,
O=C(Nc1ccccc1)c1ccc2c(-c3nc4ccccc4[nH]3)n[nH]c2c1,3%,16%,24%,,
O=C(NCCCO)c1ccc2c(-c3nc4ccccc4[nH]3)n[nH]c2c1,5%,16%,25%,,
O=C(NCCN1CCOCC1)c1ccc2c(-c3nc4ccccc4[nH]3)n[nH]c2c1,−1%,15%,30%,,
O=C(Nc1ccncc1)c1ccc2c(-c3nc4ccccc4[nH]3)n[nH]c2c1,33%,13%,42%,,
NC(=O)C1CCCN(C(=O)c2ccc3c(-c4nc5ccccc5[nH]4)n[nH]c3c2)C1 (centres unmarked),3%,13%,36%,,
CC(=O)NCCNC(=O)c1ccc2c(-c3nc4ccccc4[nH]3)n[nH]c2c1,14%,12%,90%,,
COc1ccc(NC(=O)c2ccc3c(-c4nc5ccccc5[nH]4)n[nH]c3c2)cn1,81%,11%,64%,,
CC(=O)N1CCN(C(=O)c2ccc3c(-c4nc5ccccc5[nH]4)n[nH]c3c2)CC1,5%,7%,23%,,
CC1CN(C(=O)c2ccc3c(-c4nc5ccccc5[nH]4)n[nH]c3c2)CC(C)O1 (centres unmarked),21%,7%,40%,,
O=C(c1ccc2c(-c3nc4ccccc4[nH]3)n[nH]c2c1)N1CCCC(CO)C1 (centres unmarked),96%,6%,134%,,
O=C(c1ccc2c(-c3nc4ccccc4[nH]3)n[nH]c2c1)N1CCN(C(=O)c2ccco2)CC1,−20%,6%,25%,,
NC(=O)C1CCN(C(=O)c2ccc3c(-c4nc5ccccc5[nH]4)n[nH]c3c2)CC1,44%,5%,82%,,
O=C(Nc1ccc2cn[nH]c2c1)c1ccc2c(-c3nc4ccccc4[nH]3)n[nH]c2c1,0%,2%,4%,,
O=C(c1ccc2c(-c3nc4ccccc4[nH]3)n[nH]c2c1)N1CCCC1,8%,0%,23%,,
O=C(Nc1ccc2[nH]ncc2c1)c1ccc2c(-c3nc4ccccc4[nH]3)n[nH]c2c1,28%,−1%,80%,,
O=C(c1ccc2c(-c3nc4ccccc4[nH]3)n[nH]c2c1)N1CCC(O)C1 (centres unmarked),10%,−2%,19%,,
CC1C(=O)NCCN1C(=O)c1ccc2c(-c3nc4ccccc4[nH]3)n[nH]c2c1 (centres unmarked),12%,−3%,40%,,
O=C(NC1CCCCC1)c1ccc2c(-c3nc4ccccc4[nH]3)n[nH]c2c1,3%,−3%,46%,,
C=CCN1CCN(C(=O)c2ccc3c(-c4nc5ccccc5[nH]4)n[nH]c3c2)CC1,39%,−4%,,,

SMILES,% inhibition of the proliferation of HUVEC [1],% inhibition of the proliferation of HUVEC [2],% inhibition of the proliferation of HUVEC [3],% inhibition of the proliferation of HUVEC [4],% inhibition of the proliferation of HUVEC [5]
O=C(c1ccc2c(-c3nc4ccccc4[nH]3)n[nH]c2c1)N1CCCC(O)C1 (centres unmarked),37%,−5%,20%,,
O=C(c1ccc2c(-c3nc4ccccc4[nH]3)n[nH]c2c1)N1CCOCC1,10%,−7%,59%,,
CN(CCO)C(=O)c1ccc2c(-c3nc4ccccc4[nH]3)n[nH]c2c1,27%,−8%,48%,,
CCOC(=O)C1CCCN(C(=O)c2ccc3c(-c4nc5ccccc5[nH]4)n[nH]c3c2)C1 (centres unmarked),64%,−8%,83%,,
CN(C)C(=O)c1ccc2c(-c3nc4ccccc4[nH]3)n[nH]c2c1,35%,−9%,42%,,
CCOC(=O)CC(C)NC(=O)c1ccc2c(-c3nc4ccccc4[nH]3)n[nH]c2c1 (centres unmarked),31%,−17%,20%,,
CN(CC#N)C(=O)c1ccc2c(-c3nc4ccccc4[nH]3)n[nH]c2c1,56%,−17%,17%,,
CC1(C)CC(NC(=O)c2ccccc2Sc2ccc3c(/C=C/c4ccccn4)n[nH]c3c2)CC(C)(C)N1,,,,35%,10%
O=C(NCCN1CCNC1=O)c1ccccc1Sc1ccc2c(/C=C/c3ccccn3)n[nH]c2c1,,,,5%,1%
NC(=O)CCNC(=O)c1ccccc1Sc1ccc2c(/C=C/c3ccccn3)n[nH]c2c1,,,,8%,18%
CCC(CC)CCCC(C)NC(=O)c1ccccc1Sc1ccc2c(/C=C/c3ccccn3)n[nH]c2c1 (centres unmarked),,,,3%,15%
CN(C)CCCCNC(=O)c1ccccc1Sc1ccc2c(/C=C/c3ccccn3)n[nH]c2c1,,,,23%,16%
CN(C)CCCCCCNC(=O)c1ccccc1Sc1ccc2c(/C=C/c3ccccn3)n[nH]c2c1,,,,42%,22%
CC(CNC(=O)c1ccccc1Sc1ccc2c(/C=C/c3ccccn3)n[nH]c2c1)N(C)C (centres unmarked),,,,−9%,1%
O=C(NCCCN1CCCCCC1)c1ccccc1Sc1ccc2c(/C=C/c3ccccn3)n[nH]c2c1,,,,25%,−5%
O=C(NCCCN1CCCCC1)c1ccccc1Sc1ccc2c(/C=C/c3ccccn3)n[nH]c2c1,,,,16%,7%
O=C(NC1CCS(=O)(=O)C1)c1ccccc1Sc1ccc2c(/C=C/c3ccccn3)n[nH]c2c1 (centres unmarked),,,,27%,2%
O=C(O)CNC(=O)CCNC(=O)c1ccccc1Sc1ccc2c(/C=C/c3ccccn3)n[nH]c2c1,,,,49%,−9%
N#CCNC(=O)c1ccccc1Sc1ccc2c(/C=C/c3ccccn3)n[nH]c2c1,,,,18%,40%
